Source: patent publication US6906046B2 (Celltech R & D Inc., priority 2000, dated 2005)

Tests used:
NFκB = NFκB luciferase reporter assay in TNF-α stimulated A549 cells (E-selectin promoter); type: cell-based; conditions: Homo sapiens; A549 cells with NFκB luciferase reporter, TNF-α at its EC50, 5 hours; % inhibition or IC50 in μM; read-out: NFkB inh.
Method: A549 cells were stably transfected with an E-selectin promoter containing three NFκB binding sites driving luciferase expression. For the assay, 5×10^4 cells were incubated in 96 well round bottom plates overnight in 100 μL of 10% FBS/RPMI medium at 37° C. in a 5% CO2 atmosphere. The following morning the medium was removed and 90 μL of a 1% DMSO solution of test compound solution was added and the plates incubated for 1 hour. 10 μL of TNF-α was added at its EC50 (normally 6 ng/mL FAC) to each well and the plate incubated for 5 hours. 100 μL of luciferase buffer was added, and after 10 minutes luminescence was read on a Wallac Victor 1420 Multilabel Counter. The data obtained from the Wallac Victor was converted into % inhibition data or IC50 measured in μM.

A549 cells = experiment: Inhibition of TNF-α induced apoptosis in A549 cells (crystal violet); type: cell-based; conditions: Homo sapiens; A549 cells, actinomycin-D + TNF-α at its EC50, 18 hours; percent inhibition at 20 μM or IC50 in μM; read-out: Apopt. Inh.
Method: The protocol used for determining inhibition of apoptosis in A549 cells was adopted from a system previously described (K. Last-Barney et al., J. of Immunology 141:527-530, 1988). Briefly, 10^5 cells in 200 μL 10% FBS/RPMI antibiotic containing culture medium were plated into 96 well round bottom culture plates and allowed to adhere for 6 hours at 37° C. in a 5% CO2 atmosphere. The media was removed and 100 μL of RPMI+1 μg/mL actinomycin-D was added to each well, followed by 90 μL of test compound solution in 1% DMSO. This was incubated for 1 hour 10 AL TNF-α was added at its EC50 (normally 1 ng/mL FAC) and the plates incubated for 18 hours. The media was aspirated from the plates and 100 μL of 0.5% crystal violet in 20% methanol was added. After 10 minutes the plates were rinsed with water to remove excess stain, air dried, and read on a Spectramax at a wavelength of 590 nm. The data obtained from the Spectramax was converted into percent inhibition data at a concentration of 20 μM or IC50 measured in μM.

CXCR1 = target: T1, CXCR1 (Homo sapiens, UniProt P25024); experiment: CXCR1 radioligand binding assay with 125I labeled IL-8; conditions: human recombinant CHO cells, percent inhibition or IC50
T1 construct: host or cells: CHO cells
T1 sequence (P25024 1-350): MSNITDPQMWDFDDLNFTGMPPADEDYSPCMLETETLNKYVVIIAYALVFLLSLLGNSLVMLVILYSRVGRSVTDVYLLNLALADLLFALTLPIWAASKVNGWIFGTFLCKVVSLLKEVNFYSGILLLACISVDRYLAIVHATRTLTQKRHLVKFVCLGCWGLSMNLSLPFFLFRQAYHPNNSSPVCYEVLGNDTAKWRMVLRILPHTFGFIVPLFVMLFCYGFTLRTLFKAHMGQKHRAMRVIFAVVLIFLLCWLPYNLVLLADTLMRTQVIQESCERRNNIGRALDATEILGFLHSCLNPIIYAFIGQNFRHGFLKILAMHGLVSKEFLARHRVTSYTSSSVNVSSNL
Source text: (§1) This assay is a radioligand binding assay in human recombinant CHO cells with ^125I labeled IL-8 as the ligand. The assay procedure is described in Ahuja, S. K.; Murphy, P. M;.

CXCR2 = target: T2, CXCR2 (Homo sapiens, UniProt P25025); experiment: CXCR2 radioligand binding assay with 125I labeled IL-8; conditions: human recombinant CHO cells, percent inhibition or IC50
T2 construct: host or cells: CHO cells
T2 sequence (P25025 1-360): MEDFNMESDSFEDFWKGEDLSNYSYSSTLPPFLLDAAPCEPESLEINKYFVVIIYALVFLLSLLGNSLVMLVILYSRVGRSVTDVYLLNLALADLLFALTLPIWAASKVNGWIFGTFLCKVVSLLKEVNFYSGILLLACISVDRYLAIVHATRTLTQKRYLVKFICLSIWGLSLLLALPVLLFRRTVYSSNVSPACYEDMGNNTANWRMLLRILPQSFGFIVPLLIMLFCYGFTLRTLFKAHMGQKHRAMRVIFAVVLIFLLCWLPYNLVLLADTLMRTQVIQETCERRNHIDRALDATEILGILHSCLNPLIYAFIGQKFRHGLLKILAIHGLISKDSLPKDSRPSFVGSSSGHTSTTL
Source text: as §1

## CCCOC(=O)C1C(C(=O)OCC[Si](C)(C)C)C2C/C(=N\Oc3ccccc3)[C@H]1c1cc(O)ccc12 (stereo partly shown) [Example 116]
NFκB
  IC50: 10 to 50 µM
A549 cells
  IC50: < 10 µM
CXCR1
  CXCR1 inh.: * (refers to percent inhibition from 10-36%)
CXCR2
  CXCR2 2 inh.: * (refers to percent inhibition from 10-36%)
